From patent publication US20240058318A1, “DEGRADING PKCB1 TO TREAT CANCER” (Mayo Foundation for Medical Education and Research, priority 2020, published 2024) come the findings set out here.

Type in all cases: cell-based
In experiment [1] the test system is Rb-proficient (MDAMB231) and Rb-deficient (BT549 and MDAMB436) TNBC cells. The experiment is described as follows: CV proliferation assay, TNBC cells (statements across lines). The conditions noted are these: Rb-proficient and Rb-deficient TNBC cells, CV assay. The procedure: (§1) Cell proliferation rates were determined using crystal violet assays. One thousand cells per well were plated in 96 well tissue culture plates and treated the following day with a bifunctional compound or control for 7 days in replicates of 8. Cells were fixed with 25% glutaraldehyde for 10 minutes with shaking, washed 5 times with distilled water, stained with a 1% crystal violet solution (solubilized in 25% methanol) for 10 minutes, washed again 5 times and allowed to dry. De-staining was performed using […] sodium citrate in 50% ethanol followed by quantification using a 96 well spectrophotometer set at an absorbance of 550 nm.
as §1, with “using CV” for “using crystal violet”, “assays. Two” for “assays. One”, “thousand (2000) or 4000” for “thousand”, “for 6” for “for 7”, “of 6.” for “of 8.”

Experiment [2] has as its system MDAH-2774 and KURAMOCHI ovarian cancer cells. In words: CV proliferation assay, ovarian cancer cells (statements across lines). As to conditions: MDAH-2774 and KURAMOCHI cells. The method, then: as §1
(§2) Based on the potent anti-proliferative activity of ENDX-PROTACs TC-Pr-006, TC-Pr-007, TC-Pr -008, and TC-Pr -009 in TNBC cells, the efficacy of these compounds for inhibiting the growth of ovarian cancer cells was tested. This analysis utilized KURAMOCHI cells, which represent the high-grade serous subtype (the most malignant form that accounts for 70% of all ovarian cancers and associates with poor clinical outcome) and MDAH-2774 cells, which represent endometrioid ovarian cancer and accounts for 20% of all ovarian cancer. PKCβ1 was confirmed to be expressed in both ovarian cancer cell line models, with MDAH-2774 cells expressing higher amounts of PKCβ1 compared to KURAMOCHI cells (FIG. 5A).

In the next experiment the test system is MDAMB231 cells. The experiment is described as follows: Crystal violet (CV) proliferation assay, MDAMB231. The conditions noted are these: MDAMB231 (PKCß1 high, Rb positive), 2000 cells. The method, then:
(§3) Cell proliferation rates were determined using crystal violet assays. […] Cells were fixed with 25% glutaraldehyde for 10 minutes with shaking, washed 5 times with distilled water, stained with a 1% crystal violet solution (solubilized in 25% methanol) for 10 minutes, washed again 5 times and allowed to dry. De-staining was performed using […] sodium citrate in 50% ethanol followed by quantification using a 96 well spectrophotometer set at an absorbance of 550 nm.

In the next experiment the test system is BT549 cells. The experiment is described as follows: Crystal violet (CV) proliferation assay, BT549. As to conditions: BT549 (PKCß1 high, Rb negative), 2000 cells. The procedure:
as §3

A further experiment has as its system MDAMB436 cells. In words: Crystal violet (CV) proliferation assay, MDAMB436. The conditions noted are these: MDAMB436 (PKCß1 low, Rb negative), 2000 cells. The procedure: as §3
A further experiment relates to MDAH-2774 cells. The experiment is described as follows: CV proliferation assay, MDAH-2774 ovarian cancer cells. As to conditions: MDAH-2774 (PKCß1 high), 1000 cells/well; read-out: Approximate IC50. The method, then:
as §1, §2

A further experiment has as its system KURAMOCHI cells. In words: CV proliferation assay, KURAMOCHI ovarian cancer cells. As to conditions: KURAMOSHI (PKCß1 low), 1000 cells/well; read-out: Approximate IC50. The procedure:
as §1, §2

Bounds are passed on as bounds.

On to `CC/C(=C(\c1ccc(O)cc1)c1ccc(OCCNC)cc1)c1ccccc1` [ENDX, endoxifen, reference compound], for which the “concentration inhibiting growth of TNBC cells” value in experiment [1] was above 5 µM. Moreover, the “concentration inhibiting growth of ovarian cancer cells” value in experiment [2] turned out to be 10 µM.

With `CC/C(=C(\c1ccc(O)cc1)c1ccc(OCCN(C)C(=O)COCCOCCNC(=O)c2ccc3c(c2)CN([C@H]2CCC(=O)NC2=O)C3=O)cc1)c1ccccc1` [TC-Pr-006], the IC50 is 532 nM in the experiment with MDAMB231 cells; 482 nM in the experiment on BT549 cells; 333 nM with MDAMB436 cells; above 10000 nM in the experiment on MDAH-2774 cells; above 10000 nM in the experiment on KURAMOCHI cells.
